Laboratory results from patent US10183919B2 (priority 2014, dated 2019).
Structures can show the parent of a compound that is named as a salt. Where two headings read alike, the source gives them in different places.

What was measured:
Human MOR = molecular target: T1, Human MOR (Homo sapiens, UniProt P35372); experiment: cell-based
T1 construct: expressed in transfected cells; host or cells: HEK-293T
Source text: (§1) Transfection. Human or mouse MOR cDNA was transfected alongside GαoB with RLuc8 inserted at position 91 (GαoB-RLuc8), Gβ1 (β1), and Gγ2 fused to the full-length mVenus at its N terminus (mVenus-γ2) into HEK-293T cells (5×10^6 cells/plate) in 10-cm dishes using PEI (Polysciences Inc.; Warrington, Pa.) in a 1:1 ratio diluted in Opti-MEM (Life Technologies Corp.; Grand Island, N.Y.) to assay for G protein activation as described previously (Rives, M.-L. et al. J. Biol. Chem. 2012, 287, 27050-4; Negri, A.; Rives, M.-L.; Caspers, M. J. et al. J. Chem. Inf. Model. 2013, 53, 521-526). Cells were maintained in the Dulbecco's Modified Eagle Medium (high glucose #11965; Life Technologies) supplemented with 10% FBS (Premium Select, Atlanta Biologicals; Atlanta, Ga.) and 100 U/mL penicillin and 100 μg/mL streptomycin (#15140, Life Technologies). After 24 hours the media was changed, and the experiment was performed 24 hours later (48 hours after transfection).
(§2) BRET. Transfected cells were dissociated and resuspended in phosphate-buffered saline (PBS). Approximately 200,000 cells/well were added to a black-framed, white well 96-well plate (#60050; Perkin Elmer; Waltham, Mass.). The microplate was centrifuged and the cells were resuspended in PBS. Then 5 μM of the luciferase substrate coelenterazine H was added to each well for 5 minutes. Following coelenterazine H addition, ligands were added and the BRET signal was measured at 5 minutes on a PHERAstar FS plate reader. Quantification of the BRET signal required calculating the ratio of the light emitted by the energy acceptor, mVenus (510-540 nm), over the light emitted by the energy donor, RLuc8 (485 nm). […] Dose response curves were fit using three-parameter logistics equation in GraphPad Prism 6.

Mouse MOR = molecular target: T2, Mouse MOR (Mus musculus, UniProt P42866); experiment: BRET G protein activation assay, HEK-293T cells transfected with mouse MOR; format: cell-based
T2 construct: expressed in transfected cells; host or cells: HEK-293T
Source text: as §1, §2

[1] = Pharmacokinetics and brain distribution after a single intraperitoneal dose; details: i.p. 10 mg/kg, male C57BL/6 mice
Description: For each compound, a group of twenty four male mice were administered with a solution formulation of the drug in normal saline intraperitoneally at a dose of 10 mg/kg. Blood samples (approximately 60 μL) were collected under light isoflurane anesthesia from the retro orbital plexus at 0.08, 0.25, 0.5, 1, 2, 4, 8 and 24 hr. Plasma samples were separated by centrifugation of whole blood and stored below −70° C. until bioanalysis. Immediately after collection of blood, brain samples were collected from each mouse at 0.08, 0.25, 0.5, 1, 2, 4, 8 and 24 hr. Brain samples were homogenized using ice-cold phosphate buffer saline (pH 7.4) and homogenates were stored below −70° C. until analysis. Total homogenate volume was three times the tissue weight. All samples were processed for analysis by protein precipitation using acetonitrile (ACN) and analyzed with fit-for-purpose LC/MS/MS method (LLOQ-1.01 ng/mL in plasma and brain). Pharmacokinetic parameters were calculated using the non-compartmental analysis tool of Phoenix WinNonlin® (Version 6.3).

[2] = BRET G protein activation, HEK-293T, mean ± SEM of independent trials, read-out: EC50 Mouse MOR

T1 sequence (P35372 whole entry): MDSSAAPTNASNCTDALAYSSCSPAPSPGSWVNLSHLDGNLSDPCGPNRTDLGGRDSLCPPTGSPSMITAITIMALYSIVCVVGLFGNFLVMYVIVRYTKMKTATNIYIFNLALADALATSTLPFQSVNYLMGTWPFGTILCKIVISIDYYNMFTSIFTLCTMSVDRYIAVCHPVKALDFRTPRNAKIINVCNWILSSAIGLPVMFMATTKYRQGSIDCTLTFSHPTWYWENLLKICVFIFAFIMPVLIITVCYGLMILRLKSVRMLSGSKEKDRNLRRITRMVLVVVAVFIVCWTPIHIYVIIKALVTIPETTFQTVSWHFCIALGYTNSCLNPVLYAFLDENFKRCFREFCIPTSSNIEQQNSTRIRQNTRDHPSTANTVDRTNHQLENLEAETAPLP
T2 sequence (P42866 whole entry): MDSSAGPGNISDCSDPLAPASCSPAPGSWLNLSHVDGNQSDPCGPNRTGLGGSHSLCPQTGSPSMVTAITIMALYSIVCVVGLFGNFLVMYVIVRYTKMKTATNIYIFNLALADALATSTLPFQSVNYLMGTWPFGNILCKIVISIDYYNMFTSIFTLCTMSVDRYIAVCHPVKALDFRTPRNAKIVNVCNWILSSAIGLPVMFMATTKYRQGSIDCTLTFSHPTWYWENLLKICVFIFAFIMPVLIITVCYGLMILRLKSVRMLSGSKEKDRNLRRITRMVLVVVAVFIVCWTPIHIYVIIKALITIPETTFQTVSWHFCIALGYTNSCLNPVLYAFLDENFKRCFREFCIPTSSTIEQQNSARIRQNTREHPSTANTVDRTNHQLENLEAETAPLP

## CCCCCNC1c2ccccc2N(C)S(=O)(=O)c2ccccc21 (stereo not drawn) [compound 8, 6-Methyl-11(pentylamino)-6,11-dihydrodibenzo[c,f][1,2]thiazepine 5,5-dioxide]
Human MOR
  EC50: < 10 µM
Mouse MOR; [2]
  EC50: < 10 µM

## CCOC(=O)CCCCCCNC1c2ccccc2N(C)S(=O)(=O)c2ccccc21 (stereo not drawn) [compound 9, Ethyl 7-((6-methyl-5,5-dioxido-6,11-dihydrodibenzo[c,f][1,2]thiazepin-11-yl)amino)heptanoate]
Human MOR
  EC50: < 10 µM
Mouse MOR
  EC50: < 10 µM

## CCOC(=O)CCCCNC1c2ccccc2N(C)S(=O)(=O)c2cc(Cl)ccc21 (stereo not drawn) [compound 17, Ethyl 5-((3-chloro-6-methyl-5,5-dioxido-6,11-dihydrodibenzo[c,f][1,2]thiazepin-11-yl)amino)pentanoate]
Human MOR
  EC50: < 10 µM
Mouse MOR
  EC50: < 10 µM

## CN1c2ccccc2C(NCCCCC(=O)O)c2ccc(Cl)cc2S1(=O)=O (stereo not drawn) [compound 18, 5-((3-Chloro-6-methyl-5,5-dioxido-6,11-dihydrodibenzo[c,f][1,2]thiazepin-11-yl)amino)pentanoic acid]
Human MOR
  EC50: < 10 µM
Mouse MOR
  EC50: < 10 µM

## CCCCCNC1c2ccccc2N(C)S(=O)(=O)c2cc(Cl)ccc21 (stereo not drawn) [compound 19, 3-Chloro-6-methyl-11-(pentylamino)-6,11-dihydrodibenzo [c,f][1,2]thiazepine 5,5-dioxide]
Human MOR
  EC50: < 10 µM
Mouse MOR; [2]
  EC50: < 10 µM

## CNC1c2ccccc2N(C)S(=O)(=O)c2cc(Cl)ccc21 (stereo not drawn) [compound 20, 3-Chloro-6-methyl-11-(methylamino)-6,11-dihydrodibenzo [c,f][1,2]thiazepine 5,5-dioxide]
Human MOR
  EC50: < 10 µM
Mouse MOR; [2]
  EC50: < 10 µM

## CCCNC1c2ccccc2N(C)S(=O)(=O)c2cc(Cl)ccc21 (stereo not drawn) [compound 21, 3-Chloro-6-methyl-11-(propylamino)-6,11-dihydrodibenzo [c,f][1,2]thiazepine 5,5-dioxide]
Human MOR
  EC50: < 10 µM
Mouse MOR; [2]
  EC50: < 10 µM

## CC(C)NC1c2ccccc2N(C)S(=O)(=O)c2cc(Cl)ccc21 (stereo not drawn) [compound 22, 3-Chloro-11-(isopropylamino)-6-methyl-6,11-dihydrodibenzo [c,f][1,2]thiazepine 5,5-dioxide]
Human MOR
  EC50: < 10 µM
Mouse MOR; [2]
  EC50: < 10 µM

## COCCCNC1c2ccccc2N(C)S(=O)(=O)c2cc(Cl)ccc21 (stereo not drawn) [compound 23, 3-Chloro-11-((3-methoxypropyl)amino)-6-methyl-6,11-dihydrodibenzo [c,f][1,2]thiazepine 5,5-dioxide]
Human MOR
  EC50: 0.264 ± 0.0853 µM
Mouse MOR; [2]
  EC50: 1.2 ± 0.03 µM
[1]; brain
  AUClast: 335.03 ng·h/g
  CL: 260.44 mL/min/kg
  MRTlast: 1.27 h
  T1/2: 5.12 h
  Tmax: 0.08 h
[1]; Tables 3 and 4
  half-life compared with tianeptine: much longer half-life
  systemic exposure (AUC) compared with tianeptine: higher systemic exposure (AUC)
[1]; plasma
  AUClast: 3058.80 ng·h/mL
  CL: 44.27 mL/min/kg
  Cmax: 1535.74 ng/mL
  MRTlast: 2.29 h
  T1/2: 3.93 h
  Tmax: 0.25 h

## COCCCNC1c2ccccc2N(C)S(=O)(=O)c2cc(SC)ccc21 (stereo not drawn) [compound 44, 11-((3-Methoxypropyl)amino)-6-methyl-3-(methylthio)-6, 11-dihydrodibenzo[c,f][1,2]thiazepine 5,5-dioxide]
Human MOR
  EC50: < 10 µM
Mouse MOR; [2]
  EC50: < 10 µM

## CCOC(=O)CCCCCCNC1c2ccccc2N(C)S(=O)(=O)c2cc(SC)ccc21 (stereo not drawn) [compound 45, Ethyl 7-((6-methyl-3-(methylthio)-5,5-dioxido-6,11-dihydrodibenzeo[c,f] [1,2] 1, 2lazepin-11-yl)amino) heptanotate]
Human MOR
  EC50: < 10 µM
Mouse MOR; [2]
  EC50: < 10 µM

## CN1c2ccccc2C(NCCCCCCC(=O)O)c2ccccc2S1(=O)=O (stereo not drawn) [compound 80, 7-((6-Methyl-5,5-dioxido-6,11-dihydrodibenzo[c,f][1,2]thiazepin-11-yl)amino)heptanoic acid hydrochloride salt]
Human MOR
  EC50: < 10 µM
Mouse MOR
  EC50: < 10 µM

## CN1c2ccccc2C(NCCCCCCC(=O)O)c2ccc(Cl)cc2S1(=O)=O (stereo not drawn) [tianeptine, reference compound]
Human MOR
  EC50: 0.194 ± 0.07 µM
Mouse MOR
  EC50: 0.641 ± 0.12 µM
